Assay results from publication PMC3923778 (PLoS Currents, 2014).
Entries after “also recorded” stand apart in the source; their conditions may differ.

Key:
PDE1B = biological target: T1, PDE1B (Homo sapiens, UniProt Q01064); assay: Cerep diversity panel screen at 10 µM; assay type: biochemical
T1 construct: Cerep (contract laboratory)
Experimental: (§1) Studies were conducted at Cerep (France)

PDE2A = biological target: T2, PDE2A (Homo sapiens, UniProt O00408); assay: Cerep diversity panel screen at 10 µM; assay type: biochemical
T2 construct: Cerep (contract laboratory)
T2 sequence (O00408 whole entry, species assumed): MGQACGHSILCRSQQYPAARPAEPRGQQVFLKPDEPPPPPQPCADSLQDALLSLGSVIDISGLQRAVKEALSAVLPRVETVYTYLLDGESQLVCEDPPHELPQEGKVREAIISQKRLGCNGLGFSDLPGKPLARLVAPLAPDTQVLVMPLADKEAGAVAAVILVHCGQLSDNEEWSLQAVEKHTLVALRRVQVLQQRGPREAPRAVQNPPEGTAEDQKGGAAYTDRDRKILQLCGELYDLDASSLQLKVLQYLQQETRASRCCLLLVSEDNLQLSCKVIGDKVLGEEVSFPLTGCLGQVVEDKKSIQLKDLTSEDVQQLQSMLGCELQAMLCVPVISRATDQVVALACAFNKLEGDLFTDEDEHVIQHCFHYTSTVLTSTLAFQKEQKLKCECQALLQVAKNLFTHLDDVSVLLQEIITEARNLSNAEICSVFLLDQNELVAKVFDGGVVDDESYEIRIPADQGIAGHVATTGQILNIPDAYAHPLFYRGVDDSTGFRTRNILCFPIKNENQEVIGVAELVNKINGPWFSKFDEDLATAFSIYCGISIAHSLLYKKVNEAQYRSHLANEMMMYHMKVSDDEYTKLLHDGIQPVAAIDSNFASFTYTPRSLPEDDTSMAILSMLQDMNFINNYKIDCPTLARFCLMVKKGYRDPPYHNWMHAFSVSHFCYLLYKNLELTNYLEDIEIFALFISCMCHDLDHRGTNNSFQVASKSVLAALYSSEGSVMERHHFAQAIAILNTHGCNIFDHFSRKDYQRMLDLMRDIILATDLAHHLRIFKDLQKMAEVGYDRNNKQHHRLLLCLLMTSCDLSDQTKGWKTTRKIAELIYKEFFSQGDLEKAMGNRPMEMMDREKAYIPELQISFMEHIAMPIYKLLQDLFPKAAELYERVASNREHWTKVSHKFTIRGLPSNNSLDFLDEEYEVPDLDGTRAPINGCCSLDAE
Experimental: as §1

R6/2 mice [1] = assay: Cued Two-Choice Swim Test; assay type: in vivo, mouse; conditions: for Cued 2-CST Reversal, Correct Choice: p vs Vehicle-treated R6/2 mice / Cued 2-CST Acquisition, % of Mice Reaching Criterion: p vs Vehicle-treated R6/2 mice: BID; for Cued 2-CST Reversal, Correct Choice: p vs Vehicle-treated R6/2 mice: ANOVA; for Cued 2-CST Acquisition, % of Mice Reaching Criterion: p vs Vehicle-treated R6/2 mice: at 9 Weeks, Fisher's exact test
Experimental: The cued two-choice swim test was performed at 9 weeks of age. Testing was conducted under low light, white light conditions. The mice were taught to swim to (acquisition), or away from (reversal), a light positioned over the escape platform. Animals were placed within a rectangular tank (76 cm x 30 cm x 30 cm) filled with water maintained at 25°C ± 1°C. The water was rendered opaque by the addition of non-toxic white paint. The escape platform was located 0.5 cm below the surface of the water at one end of the tank. A light source with a 25W bulb (white light), oriented toward the water, was clipped to one side of the tank above the escape platform (7 cm in diameter with the borders slanted and roughened to help the rodents climb to it). Under these conditions, the light intensity is measured as 200 lux on the illuminated side of the tank, and 3 lux on the dark side of the tank. The platform was located on the lit side of the arena across acquisition trials, although the location of the lit side within the room relative to the mouse’s entry point was varied. The location of the bulb and platform was different on different trials for the same mouse. On each trial, mice were placed into the middle of the tank and allowed to swim for up to 60 sec, or until they found the platform. […] During all acquisition days, mice were given 8 trials per day (4 blocks of 2 trials, separated by an interblock interval of 20-30 minutes). Training continued in this way until each mouse performed at 75% correct choices for 2 consecutive days; upon reaching this criterion for successful acquisition of the task, mice were placed into the reversal phase on an individual basis. During reversal training, (4 blocks of 2 trials per day), the platform was placed on the dark side of the tank. On each trial during testing days, the latency to reach the platform was recorded (60 seconds if the platform was not reached) and the trial was scored as either “correct”, “incorrect” or “no choice”. The maximum number of days of acquisition was 12 days. All mice went from acquisition into the reversal phase and the experiment was stopped when 2 consecutive days of 75% criterion was reached or after a maximum of 7 days of reversal testing. A correct choice was scored if the animal turned in the direction of the platform and successfully mounted the platform. An incorrect choice was scored if the animal swam in the direction opposite the platform. […] To make a choice, a mouse had to swim within 20 cm of either end of the tank.
(§2) All values are presented as mean ± Standard Error of Mean (SEM), and differences are considered to be statistically significant at the p < 0.05 level. Statistical analysis was performed using StatsDirect statistical software. Differences between group means were analyzed by 1-way-ANOVA followed by Dunnett’s test (comparison to the control (=vehicle treated TG mice) group). The acquisition of the Cued two-choice swim test was analyzed using Fisher’s exact test.

R6/2 mice [2] = assay: Acute and subchronic (2 weeks) tolerability evaluation in R6/2 mice; assay type: in vivo; conditions: R6/2 mice starting at 6 weeks of age, all doses administered
Source text: Prior to chronic dosing, we conducted an acute and subchronic (2 weeks) tolerability evaluation in R6/2 mice starting at 6 weeks of age (studies conducted at Psychogenics, USA; see Supplementary Report 1 for full details).

R6/2 mice [3] = assay: Lower dose behavioral efficacy study in R6/2 mice (Psychogenic); assay type: in vivo, mouse; conditions: lower doses, 0.3 – 3 mg/kg
PDE2 = tested on: PDE2; parameters: method as in PMID 9216839, PMID 17697115, PMID 10618442, PMID 8961086, PMID 7581878; conditions: ref [12], [23], [25], [27], [28], read-out: previously reported potencies; cited from earlier work
R6/2 mice [4] = assay: Chronic oral dosing in the R6/2 mouse model, overall disease progression; assay type: in vivo; conditions: chronic oral administration, 10 or 30 mg/kg BID p.o. from 4 weeks
Experimental: All animal experiments were carried out according to the National Institute of Health (NIH) guidelines for the care and use of laboratory animals, and approved by the National Laboratory Animal Board, Finland. 60 male and female R6/2 TG mice (R6/2J CAG 120 and 12 male and female wild-type littermate control mice were bred at National Animal Facility Center, Kuopio, Finland.
Mice were housed in groups of 4 and separated by sexes. In each cage, one wild-type mouse of the same sex, but different litter, was included in an attempt to provide normal social stimulation. Mice were allowed to acclimate to the experimental room for at least one hour prior to the beginning of any experiment. Mice were transported from the colony room to experimental rooms in their home cages. Experimentation was conducted in a blinded manner. Tail samples were taken at the end of the study for verification of genotypes and CAG sizes of individual mice.
as §2

T1 sequence (Q01064 whole entry, species assumed): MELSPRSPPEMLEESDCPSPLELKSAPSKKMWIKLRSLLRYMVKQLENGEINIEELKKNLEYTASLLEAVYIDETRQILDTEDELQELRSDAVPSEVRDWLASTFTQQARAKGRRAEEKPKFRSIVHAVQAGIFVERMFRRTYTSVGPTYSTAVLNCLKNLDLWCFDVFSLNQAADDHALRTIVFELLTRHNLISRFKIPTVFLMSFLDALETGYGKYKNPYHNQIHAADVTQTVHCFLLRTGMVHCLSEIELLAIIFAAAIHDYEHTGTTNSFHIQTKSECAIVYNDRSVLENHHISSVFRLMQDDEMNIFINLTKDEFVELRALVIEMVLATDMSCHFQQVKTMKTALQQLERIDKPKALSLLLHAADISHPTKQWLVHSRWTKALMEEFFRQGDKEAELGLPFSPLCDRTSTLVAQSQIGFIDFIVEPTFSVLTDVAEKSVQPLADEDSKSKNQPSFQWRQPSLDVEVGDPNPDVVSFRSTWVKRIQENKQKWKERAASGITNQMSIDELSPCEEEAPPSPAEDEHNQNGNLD

## CN1C(=O)c2nc(Cc3ccc(C(F)(F)F)cc3)[nH]c2N2C1=N[C@H]1CCC[C@H]12 [SCH-51866, (+)-cis-5,6a,7,8,9,9a-hexahydro-2-[4-[trifluro-methyl]phenylmethyl]-5-methyl-cylopent[4,5]imidazo [2,1-b]purin-4(3H)one]
PDE1B
  inhibition at 10 µM: 100%
PDE2A
  inhibition at 10 µM: 92%
R6/2 mice [1]; R6/2 mice, 9 weeks of age
  Cued Two-Choice Swim Test: learning phase, reversal learning, latency to make the choice, effect in words: did not improve any of these parameters
R6/2 mice [1]; Test Day 1, 10 mg/kg p.o.
  Cued 2-CST Reversal, Correct Choice: p vs Vehicle-treated R6/2 mice: ANOVA: p=0.117
R6/2 mice [1]; Test Day 1, 30 mg/kg p.o.
  Cued 2-CST Reversal, Correct Choice: p vs Vehicle-treated R6/2 mice: ANOVA: p=0.117
R6/2 mice [1]; Test Day 2, 10 mg/kg p.o.
  Cued 2-CST Reversal, Correct Choice: p vs Vehicle-treated R6/2 mice: ANOVA: p=0.311
  Cued 2-CST Acquisition, % of Mice Reaching Criterion: p vs Vehicle-treated R6/2 mice: p>0.999
R6/2 mice [1]; Test Day 2, 30 mg/kg p.o.
  Cued 2-CST Reversal, Correct Choice: p vs Vehicle-treated R6/2 mice: ANOVA: p=0.311
  Cued 2-CST Acquisition, % of Mice Reaching Criterion: p vs Vehicle-treated R6/2 mice: p=0.487
R6/2 mice [1]; Test Day 3, 10 mg/kg p.o.
  Cued 2-CST Reversal, Correct Choice: p vs Vehicle-treated R6/2 mice: ANOVA: p=0.573
  Cued 2-CST Acquisition, % of Mice Reaching Criterion: p vs Vehicle-treated R6/2 mice: p>0.999
R6/2 mice [1]; Test Day 3, 30 mg/kg p.o.
  Cued 2-CST Reversal, Correct Choice: p vs Vehicle-treated R6/2 mice: ANOVA: p=0.573
  Cued 2-CST Acquisition, % of Mice Reaching Criterion: p vs Vehicle-treated R6/2 mice: p>0.999
R6/2 mice [1]; Test Day 4, 10 mg/kg p.o.
  Cued 2-CST Reversal, Correct Choice: p vs Vehicle-treated R6/2 mice: ANOVA: p=0.206
  Cued 2-CST Acquisition, % of Mice Reaching Criterion: p vs Vehicle-treated R6/2 mice: p>0.999
R6/2 mice [1]; Test Day 4, 30 mg/kg p.o.
  Cued 2-CST Reversal, Correct Choice: p vs Vehicle-treated R6/2 mice: ANOVA: p=0.206
  Cued 2-CST Acquisition, % of Mice Reaching Criterion: p vs Vehicle-treated R6/2 mice: p>0.999
R6/2 mice [1]; Test Day 5, 10 mg/kg p.o.
  Cued 2-CST Reversal, Correct Choice: p vs Vehicle-treated R6/2 mice: ANOVA: p=0.057
  Cued 2-CST Acquisition, % of Mice Reaching Criterion: p vs Vehicle-treated R6/2 mice: p>0.999
R6/2 mice [1]; Test Day 5, 30 mg/kg p.o.
  Cued 2-CST Reversal, Correct Choice: p vs Vehicle-treated R6/2 mice: ANOVA: p=0.057
  Cued 2-CST Acquisition, % of Mice Reaching Criterion: p vs Vehicle-treated R6/2 mice: p>0.999
R6/2 mice [1]; Test Day 6, 10 mg/kg p.o.
  Cued 2-CST Reversal, Correct Choice: p vs Vehicle-treated R6/2 mice: ANOVA: p=0.140
  Cued 2-CST Acquisition, % of Mice Reaching Criterion: p vs Vehicle-treated R6/2 mice: p=0.313
R6/2 mice [1]; Test Day 6, 30 mg/kg p.o.
  Cued 2-CST Reversal, Correct Choice: p vs Vehicle-treated R6/2 mice: ANOVA: p=0.140
  Cued 2-CST Acquisition, % of Mice Reaching Criterion: p vs Vehicle-treated R6/2 mice: p>0.999
R6/2 mice [1]; Test Day 7, 10 mg/kg p.o.
  Cued 2-CST Acquisition, % of Mice Reaching Criterion: p vs Vehicle-treated R6/2 mice: p=0.508
R6/2 mice [1]; Test Day 7, 30 mg/kg p.o.
  Cued 2-CST Acquisition, % of Mice Reaching Criterion: p vs Vehicle-treated R6/2 mice: p=0.752
R6/2 mice [1]; Test Day 8, 10 mg/kg p.o.
  Cued 2-CST Acquisition, % of Mice Reaching Criterion: p vs Vehicle-treated R6/2 mice: p=0.313
R6/2 mice [1]; Test Day 8, 30 mg/kg p.o.
  Cued 2-CST Acquisition, % of Mice Reaching Criterion: p vs Vehicle-treated R6/2 mice: p=0.751
R6/2 mice [1]; Test Day 9, 10 mg/kg p.o.
  Cued 2-CST Acquisition, % of Mice Reaching Criterion: p vs Vehicle-treated R6/2 mice: p>0.999
R6/2 mice [1]; Test Day 9, 30 mg/kg p.o.
  Cued 2-CST Acquisition, % of Mice Reaching Criterion: p vs Vehicle-treated R6/2 mice: p>0.999
R6/2 mice [1]; Test Day 10, 10 mg/kg p.o.
  Cued 2-CST Acquisition, % of Mice Reaching Criterion: p vs Vehicle-treated R6/2 mice: p>0.999
R6/2 mice [1]; Test Day 10, 30 mg/kg p.o.
  Cued 2-CST Acquisition, % of Mice Reaching Criterion: p vs Vehicle-treated R6/2 mice: p>0.999
R6/2 mice [1]; Test Day 11, 10 mg/kg p.o.
  Cued 2-CST Acquisition, % of Mice Reaching Criterion: p vs Vehicle-treated R6/2 mice: p>0.999
R6/2 mice [1]; Test Day 11, 30 mg/kg p.o.
  Cued 2-CST Acquisition, % of Mice Reaching Criterion: p vs Vehicle-treated R6/2 mice: p=0.716
R6/2 mice [1]; Test Day 12, 10 mg/kg p.o.
  Cued 2-CST Acquisition, % of Mice Reaching Criterion: p vs Vehicle-treated R6/2 mice: p>0.999
R6/2 mice [1]; Test Day 12, 30 mg/kg p.o.
  Cued 2-CST Acquisition, % of Mice Reaching Criterion: p vs Vehicle-treated R6/2 mice: p>0.999
R6/2 mice [2]
  tolerability: well tolerated with no sign of adverse effects
R6/2 mice [3]
  effect on disease progression / endpoints (rotarod, grip strength, open field, survival): no improvement noted in any endpoint; also recorded: no effect in ameliorating disease progression
PDE2
  IC50: 2000 nM
R6/2 mice [4]
  effect on R6/2 disease progression / disease-related phenotypes: did not ameliorate disease progression; also recorded: did not modify any R6/2 disease-related phenotypes
